{"source": "patent US5300506A", "about": "“Indolylalkyl derivatives of pyrimidinylpiperazine for treating vascular headache” (Bristol-Myers Squibb Company, priority 1992, dated 1994)", "note": "Where a name gives a salt, the structure may show the parent alone.", "data": [{"system": "migraine sufferers", "assay": "not given", "settings": "migraine patients; cited from earlier work", "values": [{"smiles": "COC(=O)[C@H]1[C@H]2C[C@@H]3c4[nH]c5cc(OC)ccc5c4CCN3C[C@H]2C[C@@H](OC(=O)c2cc(OC)c(OC)c(OC)c2)[C@@H]1OC", "note": "[reserpine]", "effect on migraine headache (in words)": "induces a typical migraine-type headache"}, {"smiles": "NCCc1c[nH]c2ccc(O)cc12", "note": "[serotonin creatinine sulfate]", "effect on migraine headache (in words)": "induced headache can be alleviated"}, {"smiles": "NCCc1c[nH]c2ccc(O)cc12", "note": "[serotonin]", "effect on migraine headache (in words)": "effective in treating migraine attacks"}]}, {"system": "plasma serotonin", "assay": "not given", "settings": "intramuscular injection; cited from earlier work", "values": [{"smiles": "COC(=O)[C@H]1[C@H]2C[C@@H]3c4[nH]c5cc(OC)ccc5c4CCN3C[C@H]2C[C@@H](OC(=O)c2cc(OC)c(OC)c(OC)c2)[C@@H]1OC", "note": "[reserpine]", "effect on plasma serotonin (in words)": "lowers plasma serotonin"}]}, {"system": "not given", "assay": "not given", "settings": "use in headache treatment; cited from earlier work", "values": [{"smiles": "CN1C[C@H](C(=O)N[C@]2(C)O[C@@]3(O)[C@@H]4CCCN4C(=O)[C@H](Cc4ccccc4)N3C2=O)C=C2c3cccc4[nH]cc(c34)C[C@H]21", "note": "[ergotamine]", "side-effects / dependence (in words)": "cause dependence with extended use"}, {"smiles": "CC[C@@H](CO)NC(=O)[C@@H]1C=C2c3cccc4c3c(cn4C)C[C@H]2N(C)C1", "note": "[methysergide]", "side-effects / dependence (in words)": "severe use-limiting side-effects with long term usage"}, {"smiles": "NCCc1c[nH]c2ccc(O)cc12", "note": "[serotonin]", "side-effects / dependence (in words)": "restlessness, nausea, faintness, hyperpnea, facial flushing and parasthesias"}]}, {"target": "T1, 5-HT1D (Bos taurus, UniProt F1MGM3)", "T1 construct": "from tissue", "T1 sequence (F1MGM3 1-403)": "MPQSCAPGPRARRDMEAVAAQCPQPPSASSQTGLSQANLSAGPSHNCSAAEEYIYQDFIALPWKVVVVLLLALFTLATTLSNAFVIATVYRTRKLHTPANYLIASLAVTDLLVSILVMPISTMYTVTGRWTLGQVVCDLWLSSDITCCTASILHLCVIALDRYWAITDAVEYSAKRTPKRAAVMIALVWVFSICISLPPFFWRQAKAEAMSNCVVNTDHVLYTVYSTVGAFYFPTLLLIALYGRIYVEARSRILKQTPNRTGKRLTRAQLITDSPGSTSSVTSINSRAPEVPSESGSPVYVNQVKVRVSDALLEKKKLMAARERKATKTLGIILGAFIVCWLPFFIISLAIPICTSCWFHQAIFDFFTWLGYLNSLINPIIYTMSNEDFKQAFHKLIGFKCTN", "assay": "5-HT1D binding site affinity (tritiated serotonin; methodology of Heuring and Peroutka with minor modifications)", "settings": "in vitro", "procedure": "Determination of 5-HT1D binding properties was accomplished employing methodology such as that described by Heuring and Peroutka, J. Neurosci., 7(3), 1987, 894-903; with only minor modifications. In vitro IC50 (nM) test values were determined for the compounds of this invention employing tritiated serotonin.", "units": {"IC50": "nM"}, "values": [{"smiles": "CCS(=O)(=O)Nc1ccc2[nH]cc(CCCN3CCN(c4ncncc4OC)CC3)c2c1", "note": "[Example 67]", "IC50": 13.7}, {"smiles": "COc1ccc2[nH]cc(CCCN3CCN(c4ncncc4OC)CC3)c2c1", "note": "[Example 73]", "IC50": 1.1}, {"smiles": "COc1cncnc1N1CCN(CCCc2c[nH]c3ccc(N(C)S(C)(=O)=O)cc23)CC1", "note": "[Example 65]", "IC50": 4.9}, {"smiles": "COc1cncnc1N1CCN(CCCc2c[nH]c3ccc(NS(C)(=O)=O)cc23)CC1", "note": "[Example 63]", "IC50": 5.2}, {"smiles": "COc1cncnc1N1CCN(CCCc2c[nH]c3cc(F)c(F)cc23)CC1", "note": "[Example 74]", "IC50": 29}, {"smiles": "COc1cncnc1N1CCN(CCCc2c[nH]c3c(F)ccc(F)c23)CC1", "note": "[Example 75]", "IC50": 5.1}, {"smiles": "COc1cncnc1N1CCN(CCCc2c[nH]c3ccc(N(C)S(C)(=O)=O)cc23)CC1C", "note": "(stereo not drawn) [Example 66]", "IC50": 12}, {"smiles": "COc1cncnc1N1CCN(CCCc2c[nH]c3ccc(O)cc23)CC1", "note": "[Example 55, 1-[3-(5-Hydroxy-1H-indol-3-yl)propyl]-4-(5-methoxy-4-pyrimidinyl)piperazine]", "IC50": 0.8}, {"smiles": "COc1cncnc1N1CCN(C(C)CCc2c[nH]c3ccccc23)CC1", "note": "(stereo not drawn) [Example 53]", "IC50": 5}, {"smiles": "COc1cncnc1N1CCN(CCCc2c[nH]c3ccc(OCc4ccccc4)cc23)CC1", "note": "[Example 72]", "IC50": 14.3}, {"smiles": "CCS(=O)(=O)N(C)c1ccc2[nH]cc(CCCN3CCN(c4ncncc4OC)CC3)c2c1", "note": "[Example 68]", "IC50": 12.9}, {"smiles": "COc1cncnc1N1CCN(CCCc2c[nH]c3ccccc23)CC1C", "note": "(stereo not drawn) [Example 62]", "IC50": 4.2}, {"smiles": "CCOc1cncnc1N1CCN(CCCc2c[nH]c3ccccc23)CC1", "note": "[Example 52, 4-(5-Ethoxy-4-pyrimidinyl)-1-[3-(1H-indol-3-yl)propyl]piperazine hydrochloride hydrate]", "IC50": 2}, {"smiles": "CCS(=O)(=O)N(C)c1ccc2[nH]cc(CCCN3CCN(c4ncncc4OC)C(C)C3)c2c1", "note": "(stereo not drawn) [Example 69]", "IC50": 19.1}, {"smiles": "CCC(CCc1c[nH]c2ccccc12)N1CCN(c2ncncc2OC)CC1", "note": "(stereo not drawn) [Example 54, 3-[3-[4-(5-Methoxy-4-pyrimidinyl)-1-piperazinyl]pentyl]indole]", "IC50": 20.5}, {"smiles": "COc1cncnc1N1CCN(CCCc2c[nH]c3ccc(F)cc23)CC1", "note": "[Example 60]", "IC50": 3}, {"smiles": "CCS(=O)(=O)Nc1ccc2[nH]cc(CCCN3CCN(c4ncncc4OC)C(C)C3)c2c1", "note": "(stereo not drawn) [Example 70]", "IC50": 17.1}, {"smiles": "COc1cncnc1N1CCN(CCCc2c[nH]c3c(F)cc(F)cc23)CC1", "note": "[Example 76]", "IC50": 8.1}, {"smiles": "COc1cncnc1N1CCN(CCCc2c[nH]c3ccccc23)CC1", "note": "[Example 61]", "IC50": 2.9}, {"smiles": "CCOc1ccc2[nH]cc(CCCN3CCN(c4ncncc4OC)CC3)c2c1", "note": "[Example 71]", "IC50": 2.2}]}]}
